From patent publication US20230050965A1, “SSTR5 ANTAGONISTS” (Kallyope, Inc., priority 2019, published 2023)

Legend:
human SSTR5 = molecular target: T1, human SSTR5 (Homo sapiens, UniProt P35346); assay: Inositol phosphate (IP1) accumulation assay, antagonist mode; format: cell-based; details: CHO-K1 cells stably co-expressing human SSTR5 with Gqi5; pre-incubation with antagonist, then SST28 agonist; IP1 HTRF readout
T1 construct: expressed in transfected cells
Excerpt: Inositol Phosphate Accumulation Assay
CHO-K1 cells stably co-expressing human SSTR5 with Gqi5 were developed using Jump-In technology from Thermo-Fisher. Gqi5 is the mouse G alpha q protein, that was modified to interact with Gi-coupled GPCRs as described previously (Coward, P.; Chan, S. D.; Wada, H. G.; Humphries, G. M.; Conklin, B. R. Chimeric G proteins Allow a High-Throughput Signaling Assay of Gi-Coupled Receptors. Anal Biochem. 1999, 270(2), 242-248).
Co-expression of Gqi5 with SSTR5 allowed monitoring of SSTR5 activity by following IP1 accumulation. The assay was performed in a 384-well plate format using the IP1 assay kit from Cis-Bio in an antagonist mode, i.e., pre-incubation with antagonist following by receptor activation by agonist at a concentration generating 90% of full activation. Frozen cells expressing human SSTR5 were thawed, washed, and then plated in DMEM supplemented with 10% FBS and non-essential amino acids. 40 μL of 2.5×10^5 cells/mL were plated on a Poly D-Lysine coated 384-well white plate. The cells were then incubated for 16 hr. at 37° C./5% CO2. After 16 hour the medium was removed, and 10 μL of stimulation buffer was added to the cells. Test compounds were dissolved in DMSO at concentrations 2000-fold that of the final assay concentrations. 7.5 nL compound solutions were transferred to the cell plates using a Labcyte Echo® acoustic liquid handler. The plates were then incubated for 15 minutes at 37° C./5% CO2. After the first incubation, 5 μL of 30 nM SST28 were added to the cells, and the cells were incubated for 90 minutes at 37° C./5% CO2. 5 μL of detection buffer (prepared as described in the IP-1 kit) was added to each well, and the plates were incubated at RT for 1 hour.
TR-FRET was measured using a ClarioSTAR plate reader, calculating the ratio between emissions at 665 nm and 620 nm (HTRF ratio). The HTRF ratio for positive (Max) and negative (Min) controls were used to normalize HTRF data and generate values for % inhibition. IC50 and maximal inhibition values were determined using a standard 4-parameter fit.

[1] = Oral bioavailability after oral dosing in rat; details: in vivo, Sprague Dawley rats, IV 1 mg/kg, PO 5 mg/kg, read-out: F % (oral bioavailability)
Description: Example A-2: Oral Bioavailability of the Compounds after Oral Dosing in Rat
Oral bioavailability of the compounds was determined in Sprague Dawley rats. The table below summarizes the results. Each compound was dosed intravenously (IV) at 1 mg/kg and orally (PO) 5 mg/kg using the respective vehicles listed below. The compounds display low (<10%) oral bioavailability (F %).

T1 sequence (P35346 whole entry): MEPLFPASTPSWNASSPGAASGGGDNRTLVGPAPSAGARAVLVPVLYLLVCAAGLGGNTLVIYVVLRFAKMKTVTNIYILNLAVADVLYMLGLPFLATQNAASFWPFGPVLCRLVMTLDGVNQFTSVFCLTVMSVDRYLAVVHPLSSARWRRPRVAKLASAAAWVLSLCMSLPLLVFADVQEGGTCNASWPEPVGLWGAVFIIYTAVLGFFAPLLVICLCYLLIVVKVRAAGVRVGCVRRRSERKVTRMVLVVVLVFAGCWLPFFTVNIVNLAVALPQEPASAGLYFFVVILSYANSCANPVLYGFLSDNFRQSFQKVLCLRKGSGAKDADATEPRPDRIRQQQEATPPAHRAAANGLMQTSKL

Row | Compound | IC50 (human SSTR5) | bioavailability [1]
1 | CCOc1cc(-c2ccc(F)cc2)c(C2CC2)cc1CN1CCC2(CC1)CN(c1ccc(P(=O)(O)O)cc1)C(=O)O2 [Compound 1, (4-(8-((2-cyclopropyl-5-ethoxy-4′-fluoro-[1,1′-biphenyl]-4-yl)methyl)-2-oxo-1-oxa-3,8-diazaspiro[4.5]decan-3-yl)phenyl)phosphonic acid] | ≤ 100 nM | 0.9%
2 | CCOc1cc(-c2ccc(F)cc2)c(C2CC2)cc1CN1CCC2(CC1)CN(c1ccc(P(C)(=O)O)cc1)C(=O)O2 [Compound 2, (4-(8-((2-cyclopropyl-5-ethoxy-4′-fluoro-[1,1′-biphenyl]-4-yl)methyl)-2-oxo-1-oxa-3,8-diazaspiro[4.5]decan-3-yl)phenyl)(methyl)phosphinic acid] | ≤ 100 nM | 8.7%
3 | CCOc1cc(-c2ccc(F)cc2)c(C2CC2)cc1CN1CCC2(CC1)CN(c1ccc([PH](=O)O)cc1)C(=O)O2 [Compound 3, (4-(8-((2-cyclopropyl-5-ethoxy-4′-fluoro-[1,1′-biphenyl]-4-yl)methyl)-2-oxo-1-oxa-3,8-diazaspiro[4.5]decan-3-yl)phenyl)phosphinic acid] | ≤ 100 nM | 1.9%
4 | CCOc1cc(-c2ccc(F)cn2)c(C2CC2)cc1CN1CCC2(CC1)CN(c1ccc(P(=O)(O)O)cc1)C(=O)O2 [Compound 9, (4-(8-(5-cyclopropyl-2-ethoxy-4-(5-fluoropyridin-2-yl)benzyl)-2-oxo-1-oxa-3,8-diazaspiro[4.5]decan-3-yl)phenyl)phosphonic acid] | ≤ 100 nM | 0.2%
5 | CCOc1cc(-c2nc(C)no2)c(C2CC2)cc1CN1CCC2(CC1)CN(c1ccc(P(=O)(O)O)cc1)C(=O)N2 [Compound 27, (4-(8-(5-cyclopropyl-2-ethoxy-4-(3-methyl-1,2,4-oxadiazol-5-yl)benzyl)-2-oxo-1,3,8-triazaspiro[4.5]decan-3-yl)phenyl)phosphonic acid] | ≤ 100 nM | –
6 | CCOc1cc(-c2ccc(F)cc2)c(C2CC2)cc1CN1CCC2(CC1)CN(c1ccc(P(C)(=O)O)cc1)C(=O)N2 [Compound 28, (4-(8-((2-cyclopropyl-5-ethoxy-4′-fluoro-[1,1′-biphenyl]-4-yl)methyl)-2-oxo-1,3,8-triazaspiro[4.5]decan-3-yl)phenyl)(methyl)phosphinic acid] | ≤ 100 nM | –
7 | CCOc1cc(-c2ccc(F)cc2)c(C2CC2)cc1CN1CCC2(CC1)CC(=O)N(c1ccc(P(=O)(O)O)cc1)C2 [Compound 29, (4-(8-((2-cyclopropyl-5-ethoxy-4′-fluoro-[1,1′-biphenyl]-4-yl)methyl)-3-oxo-2,8-diazaspiro[4.5]decan-2-yl)phenyl)phosphonic acid] | ≤ 100 nM | –
8 | CCOc1cc(-c2ccc(F)cc2)c(C2CC2)cc1CN1CCC2(CC1)CN(c1ccc(CP(=O)(O)O)cc1)C(=O)O2 [Compound 30, (4-(8-((2-cyclopropyl-5-ethoxy-4'-fluoro-[1,1'-biphenyl]-4-yl)methyl)-2-oxo-1-oxa-3,8-diazaspiro[4.5]decan-3-yl)benzyl)phosphonic acid] | ≤ 100 nM | –
9 | CCOc1cc(S(C)(=O)=O)c(C2CC2)cc1CN1CCC2(CC1)CN(c1cccc(CCCCNC(=O)NC(CO)(CO)CO)c1)C(=O)N2 [Compound 31, 1-(4-(3-(8-(5-cyclopropyl-2-ethoxy-4-(methylsulfonyl)benzyl)-2-oxo-1,3,8-triazaspiro[4.5]decan-3-yl)phenyl)butyl)-3-(1,3-dihydroxy-2-(hydroxymethyl)propan-2-yl)urea] | 100 to 1000 nM | –
10 | CCOc1cc(-c2ccc(F)cc2)c(C2CC2)cc1CN1CCC2(CC1)CN(c1ccc(CNC[C@H](O)[C@@H](O)[C@H](O)[C@H](O)CO)cc1)C(=O)O2 [Compound 32, 8-((2-cyclopropyl-5-ethoxy-4'-fluoro-[1,1'-biphenyl]-4-yl)methyl)-3-(4-((((2S,3R,4R,5R)-2,3,4,5,6-pentahydroxyhexyl)amino)methyl)phenyl)-1-oxa-3,8-diazaspiro [4.5]decan-2-one] | ≤ 100 nM | –
11 | CCOc1cc(-c2ccc(F)cn2)c(C2CCC2)cc1CN1CCC2(CC1)CN(c1ccc(P(=O)(O)O)cc1)C(=O)O2 [Compound 35, (4-(8-(5-cyclobulyl-2-ethoxy-4-(5-fluoropyridin-2-yl)benzyl)-2-oxo-1-oxa-3,8-diazaspiro[4.5]decan-3-yl)phenyl)phosphonic acid] | ≤ 100 nM | –
12 | CCOc1cc(-c2ccc(F)cc2)c(C2CCC2)cc1CN1CCC2(CC1)CN(c1ccc(P(=O)(O)O)cc1)C(=O)O2 [Compound 36, (4-(8-((2-cyclobutyl-5-ethoxy-4'-fluoro-[1,1'-biphenyl]-4-yl)methyl)-2-oxo-1-oxa-3,8-diazaspiro[4.5]decan-3-yl)phenyl)phosphonic acid] | ≤ 100 nM | –
13 | CCOc1cc(-c2ccc(F)cc2)c(C(C)C)cc1CN1CCC2(CC1)CN(c1ccc(P(=O)(O)O)cc1)C(=O)O2 [Compound 37, (4-(8-((5-ethoxy-4'-fluoro-2-isopropyl-[1,1'-biphenyl]-4-yl)methyl)-2-oxo-1-oxa-3,8-diazaspiro[4.5]decan-3-yl)phenyl)phosphonic acid] | ≤ 100 nM | –
14 | CCOc1cc(-c2ccc(F)cc2)c(C2CC2)cc1CN1CCN(S(=O)(=O)Cc2ccc(P(=O)(O)O)cc2)CC1 [Compound 38, (4-(((4-((2-cyclopropyl-5-ethoxy-4′-fluoro-[1,1′-biphenyl]-4-yl)methyl)piperazin-1-yl)sulfonyl)methyl)phenyl)phosphonic acid] | ≤ 100 nM | –
15 | CCOc1cc(-c2ccc(F)cc2)c(C2CC2)cc1CN1CCN(S(=O)(=O)Cc2ccc(P(=O)(O)OCC)cc2)CC1 [Compound 39, ethyl hydrogen (4-(((4-((2-cyclopropyl-5-ethoxy-4′-fluoro-[1,1′-biphenyl]-4-yl)methyl)piperazin-1-yl)sulfonyl)methyl)phenyl)phosphonate] | ≤ 100 nM | –
16 | CCOc1cc(-c2ccc(F)cc2)c(C2CC2)cc1CN1CCN(C(=O)Cc2ccc(P(=O)(O)OCC)cc2)CC1 [Compound 40, ethyl hydrogen (4-(2-(4-((2-cyclopropyl-5-ethoxy-4′-fluoro-[1,1′-biphenyl]-4-yl)methyl)piperazin-1-yl)-2-oxoethyl)phenyl)phosphonate] | ≤ 100 nM | –
17 | CCOc1cc(-c2ccc(F)cc2)c(C2CC2)cc1CN1CCN(C(=O)Cc2ccc(P(=O)(O)O)cc2)CC1 [Compound 41, (4-(2-(4-((2-cyclopropyl-5-ethoxy-4′-fluoro-[1,1′-biphenyl]-4-yl)methyl)piperazin-1-yl)-2-oxoethyl)phenyl)phosphonic acid] | ≤ 100 nM | –
18 | CCOc1cc(C(=O)OC)c(C2CC2)cc1CN1CCN(C(=O)Oc2ccc(CNC[C@H](O)[C@@H](O)[C@H](O)[C@H](O)CO)cc2)CC1 [Compound 42, 4-((((2S,3R,4R,5R)-2,3,4,5,6-pentahydroxyhexyl)amino)methyl)phenyl 4-(5-cyclopropyl-2-ethoxy-4-(methoxycarbonyl)benzyl)piperazine-1-carboxylate] | > 5000 nM | –
